Experimental data reported in patent publication EP0291663A2, “Tert.-butyl amino-3-(phenyl-2'-phenoxy)-1-propanol-2 for the control of heart arrhythmia” (priority 1987, dated 1988).
Where a name gives a salt, the structure may show the parent alone.

Key:
ventrikuläre Arrhythmien = type: in vivo, Hund; conditions: dog
Source text: Dies wird auch durch in vivo Experimente bestätigt. Die antiarrhythmische Wirksamkeit der Verbindung wurde an Hunden nach H. Glücker et al., Arzneim.Forsch. (Drug Ros.) Bd. 35 (II), 9 (1985) S.1387-1393 geprüft. Die […] wurde mindestens 2 Stunden lang occludiert. Nach dem Auftreten konstanter […] die Verbindungen intravenös injiziert.

in vivo = conditions: rat
Hunde-Purkinye Fasern = assay: Electrophysiology on isolated dog Purkinje fibres (Vmax, action potential duration); type: cell-based, Hund; conditions: for Rate Factor von Vmax: (% of control Vmax at cycle length 2000 mSek.)/(% of control Vmax at cycle length 500 mSek.) at C20Vmax
Source text: (§1) Überraschenderweise wurde gefunden, daß das tert.-Butylamino-3-(phenyl-2ʹ-phenoxy)-1-propanol 2 ("Bipranol") der Formel [drawing 1] und seine Salze mit Säuren keine β-sympatholytische Wirkung, sondern eine starke antiarrhythmische Wirkung besitzen. Die elektrophysiologischen und hämodynamischen Wirkungen wurden in vitro an zwei verschiedenen isolierten Herzpräparaten und in vivo (Hund) experimentell untersucht. In Tabelle I sind Ergebnisse pharmakologischer Untersuchungen mit Diprafenon, Propafenon und Bipranol zusammengefaßt.
(§2) C20 Vmax: Konzentration, die Vmax bei einer Zykluslänge von 1000 mSek. um 20 % verringert. C20 CF: Konzentration, die die Kontraktion des Papillarmuskels um 20 % verringert. Rate Factor von Vmax: (% des Kontrollwertes Vmax bei einer Zykluslänge von 2000 mSek.)/(% des Kontrollwertes Vmax bei einer Zykluslänge von 500 mSek.) bei C20Vmax. C20APD95: Die Konzentration, die das APD95 des normalen Aktionspotentials um 20 % verlängert. Sf : Sicherheitsfaktor, errechnet als Rate Factor von Vmax × (C20 CF/C20 Vmax).
(§3) In in vitro-Experimenten an isolierten Herzpräparaten lag die leistungsverzögernde und damit antiarrhythmische Wirkung (C20 Vmax) bei einer Dosis von 2,2 µMol Bipranol. Diese Dosierung entspricht einer antiarrhythmischen wirksamen Dosis von etwa 3 mg/kg bei in vivo Versuchen an Hunden. […] Diese Konzentration ist ungefähr 14 mal höher als für eine antiarrhythmische Wirkung gebraucht wird.

[1] = test system: Meerschweinchen-Papillarmuskel; assay: Contraction of isolated guinea pig papillary muscle (safety factor, negative inotropy); type: cell-based; conditions: for Sf (Sicherheitsfaktor): Rate Factor von Vmax × (C20 CF/C20 Vmax)
Source text: as §1, §2

β-Rezeptor = type: in vivo, Hund
Source text: Als Parameter zur Bestimmung der β-Rezeptor-blockierenden Wirkung am narkotisierten Hund dienten dP/dt als Maß für die Kontraktionskraft des Herzens, sowie cardiac output (Herzzeitvolumen). […] Im Gegensatz wirken β-Blocker immer negativ-inotrop. […] Die Beobachtungen bei dieser Dosis sind wahrscheinlich Folge einer nicht spezifischen toxischen Wirkung und beruhen nicht auf einer β-sympatolytischen Wirkung.

[2] = test system: Meerschweinchen-Vorhofmuskel; assay: Antagonism of the positive inotropic effect of adrenaline on isolated guinea pig atrial muscle; type: cell-based; conditions: highest test concentration 30 µMol
Procedure: as §3

[3] = anaesthetised dog, up to 30 mg/kg
[4] = concentration that prolongs APD95 of the normal action potential by 20 %

SMILES	Rate Factor von Vmax (Hunde-Purkinye Fasern)	negativ-inotrope Nebenwirkung [1]	Sf (Sicherheitsfaktor) [1]	C20APD95 (Hunde-Purkinye Fasern; [4])	further results
O=C(NCC1CCCCN1)c1cc(OCC(F)(F)F)ccc1OCC(F)(F)F (centres unmarked) [Flecainid, reference compound]	–	–	–	–	therapeutische Dosierung (ventrikuläre Arrhythmien; i.v., followed by 50 µg/kg/min): 2,4 mg/kg
CC(C)(C)NCC(O)COc1ccccc1-c1ccccc1 (centres unmarked) [Bipranol HCl, tert.-Butylamino-3-(phenyl-2ʹ-phenoxy)-1-propanol-2]	–	–	–	–	LD50 (in vivo; Ratte (iv)): 11 mg/kg; LD50 (in vivo; Ratte (oral)): 571 mg/kg
CC(C)(C)NCC(O)COc1ccccc1-c1ccccc1 (centres unmarked) [Bipranol, tert.-Butylamino-3-(phenyl-2ʹ-phenoxy)-1-propanol-2]	5	keine nennenswerte negativ-inotrope Nebenwirkung	9,09	–	IC20 (Hunde-Purkinye Fasern; Canis lupus familiaris, purkinje, concentration that reduces Vmax by 20 % at cycle length 1000 mSek., isolated heart preparations, read-out: C20 Vmax): 2.2 µM; EC20 (Hunde-Purkinye Fasern; purkinje, concentration that prolongs APD95 of the normal action potential by 20 %, read-out: C20APD95): 7.2 µM; Reduktion der ventrikulären Extrazystolen (ventrikuläre Arrhythmien; i.v., 1,6 mg/kg followed by 50 µg/kg/min): > 90%; cardiac output (Herzzeitvolumen) (β-Rezeptor; [3]): nicht beeinflußt; dP/dt (Kontraktionskraft des Herzens) (β-Rezeptor; [3]): keine negativ-inotrope Wirkung; Mortality (β-Rezeptor; in vivo, iv, 30 mg/kg): starben alle Hunde; Abschwächung der positiv-inotropen Wirkung von 1 µMol Adrenalin [2]: geringe Abschwächung
CCCNCC(O)COc1ccccc1C(=O)CCc1ccccc1 (centres unmarked) [Propafenon]	1,08	–	1,55	nicht erreicht	–
CCC(C)(C)NCC(O)COc1ccccc1C(=O)CCc1ccccc1 (centres unmarked) [Diprafenon]	1,19	deutlich negativer inotroper Effekt	4,86	nicht erreicht	–
